# Test results as given in publication PMC11577813, “Eurasian spruce bark beetle detects lanierone using a highly expressed specialist odorant receptor, present in several functional sensillum types” (BMC Biology, 2024).
# Target: T1, ItypOR36 (with ItypOrco) (Ips typographus, UniProt A0AAU6S471)
# T1 construct: gene OR36; heteromeric OR/Orco ligand-gated ion channel; GenBank id is for ItypOR36; with Odorant receptor coreceptor
# T1 sequence (A0AAU6S471 1-390): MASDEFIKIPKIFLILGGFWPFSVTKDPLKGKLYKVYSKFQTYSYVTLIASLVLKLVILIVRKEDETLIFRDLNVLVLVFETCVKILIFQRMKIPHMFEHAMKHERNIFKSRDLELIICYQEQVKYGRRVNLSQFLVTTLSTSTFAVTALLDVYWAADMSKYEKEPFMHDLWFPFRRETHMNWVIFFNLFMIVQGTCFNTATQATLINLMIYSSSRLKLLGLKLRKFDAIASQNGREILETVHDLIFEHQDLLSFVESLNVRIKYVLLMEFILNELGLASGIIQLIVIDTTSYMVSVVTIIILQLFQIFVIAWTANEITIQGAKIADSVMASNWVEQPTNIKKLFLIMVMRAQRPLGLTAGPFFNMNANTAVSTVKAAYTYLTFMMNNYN
# Experiment: Fluo4-AM calcium fluorescence in HEK293 cells, dose-response
# Assay type: cell-based
# Details: agonist; co-expressed ItypOrco; doxycycline-induced; DPBS with 1 mM probenecid, pH 7.1
compound,measurement,value
"CC1=CC(C)(C)C=C(O)C1=O [lanierone, 2-hydroxy-4,4,6-trimethyl-2,5-cyclohexadien-l-one]",EC50,790 nM
